For the series, the target named is SNHG14. Conditions: ASO.
Setting [1] is: Mouse Primary Neuronal Cell, 0.005 µM.

After the bases stand the sugars from the 5' end (letter, count) and the backbone: PS all phosphorothioate, else s phosphorothioate and o phosphodiester by linkage. Methylation of C is not given here. l = locked nucleic acid (LNA); d = 2'-deoxy (DNA)

CATATTGAACCAATTC (sugars l4 d10 l2, PS): the target mRNA inhibition (Human Neuronal Cell, 0.2 µM) was 51% and the target mRNA inhibition (Human Neuronal Cell, 1 µM) amounted to 67%.

In the case of CATCATATTGAACCAA (sugars l2 d10 l4, PS), the target mRNA inhibition was 52% (Human Neuronal Cell, 0.2 µM) and 63% (Human Neuronal Cell, 1 µM).

“CATCTGATCTCACACAT (sugars l4 d11 l2, PS)”: the target mRNA inhibition (Human Neuronal Cell, 0.2 µM) was determined as 29% and the target mRNA inhibition (Human Neuronal Cell, 1 µM) was 46%.

Take “CATCTGCTACATATTCT (sugars l4 d11 l2, PS)”: the target mRNA inhibition worked out at 53% (Human Neuronal Cell, 0.2 µM) and 62% (Human Neuronal Cell, 1 µM).

As to “CATTATATTTAAACTATCA (sugars l4 d13 l2, PS)”, the target mRNA inhibition (Human Neuronal Cell, 0.2 µM) turned out to be 8% and the target mRNA inhibition (Human Neuronal Cell, 1 µM) came to 15%.

Take CATTATTAACCACCTT (sugars l2 d10 l4, PS): the target mRNA inhibition reads like this: (Human Neuronal Cell, 0.2 µM) 54%; (Human Neuronal Cell, 1 µM) 59%.

For the sequence “CATTTCATATTACTAACT (sugars l3 d12 l3, PS)”, the target mRNA inhibition was 10% (Human Neuronal Cell, 0.2 µM) and 18% (Human Neuronal Cell, 1 µM).

“CCAAACTGTCTTCTAAT (sugars l2 d11 l4, PS)”: the target mRNA inhibition came out at 23% (Human Neuronal Cell, 0.2 µM) and 26% (Human Neuronal Cell, 1 µM).

As for CCAGACTCCAATATTT (sugars l4 d10 l2, PS), the target mRNA inhibition is, setting by setting: (Human Neuronal Cell, 0.2 µM) 55%; (Human Neuronal Cell, 1 µM) 39%.

On to CCAGCATATTATATAC (sugars l3 d10 l3, PS), for which the target mRNA inhibition was determined as 27% (Human Neuronal Cell, 0.2 µM) and 23% (Human Neuronal Cell, 1 µM).

Regarding CCATCTAATGATTATT (sugars l4 d10 l2, PS), the target mRNA inhibition runs as follows: (Human Neuronal Cell, 0.2 µM) 26%; (Human Neuronal Cell, 1 µM) 21%.

Consider CCATTCAATGATCACT (sugars l2 d10 l4, PS), for which the target mRNA inhibition (Human Neuronal Cell, 0.2 µM) came to 52% and the target mRNA inhibition (Human Neuronal Cell, 1 µM) is 45%.

As for “CCATTTATTTCCATTTATTT (sugars lddlldldddddddddddll, PS)”, the target mRNA inhibition (Human Neuronal Cell, 7.5 µM) is 40%.

Consider CCTACATCTCATACTT (sugars l2 d12 l2, PS), for which the target mRNA inhibition is -3% (Human Neuronal Cell, 0.2 µM); -3% (Human Neuronal Cell, 1 µM); 11% (Human Neuronal Cell, 5 µM).

“CCTACATCTCATACTTGC (sugars l2 d14 l2, PS)”: the target mRNA inhibition is, setting by setting: (Human Neuronal Cell, 0.2 µM) 4%; (Human Neuronal Cell, 1 µM) 21%; (Human Neuronal Cell, 5 µM) 25%; under setting [1], 92.2%.

For the sequence “CCTATGTTAATACTTTC (sugars l4 d11 l2, PS)”, the target mRNA inhibition (Human Neuronal Cell, 0.2 µM) was 35% and the target mRNA inhibition (Human Neuronal Cell, 1 µM) amounted to 47%.

Regarding CCTTCCCTTTGATAAC (sugars l3 d11 l2, PS), the target mRNA inhibition (Human Neuronal Cell, 0.2 µM) was determined as 28% and the target mRNA inhibition (Human Neuronal Cell, 1 µM) turned out to be 55%.

As for “CCTTTAGCATTTCTATT (sugars l2 d11 l4, PS)”, the target mRNA inhibition by setting is: (Human Neuronal Cell, 0.2 µM) 38%; (Human Neuronal Cell, 1 µM) 59%.

“CCTTTCATTAACATTTA (sugars l3 d11 l3, PS)”: the target mRNA inhibition (Human Neuronal Cell, 0.2 µM) came out at 46% and the target mRNA inhibition (Human Neuronal Cell, 1 µM) turned out to be 52%.

As to “CTACAAATTCAATTTACT (sugars l2 d12 l4, PS)”, the target mRNA inhibition is, setting by setting: (Human Neuronal Cell, 0.2 µM) 3%; (Human Neuronal Cell, 1 µM) 10%.

Regarding “CTACATCTCATACTTGC (sugars l2 d12 l3, PS)”, the target mRNA inhibition under setting [1] worked out at 97%.

For “CTACTAAACATACACAT (sugars l3 d11 l3, PS)”, the target mRNA inhibition by setting is: (Human Neuronal Cell, 0.2 µM) 34%; (Human Neuronal Cell, 1 µM) 45%.

CTATGTTAATACTTTC (sugars l4 d10 l2, PS): the target mRNA inhibition was determined as 26% (Human Neuronal Cell, 0.2 µM) and 31% (Human Neuronal Cell, 1 µM).

For the sequence “CTCAAAGATCATTCTCA (sugars l1 d1 l3 d8 l4, PS)”, under “Human Neuronal Cell, 7.5 µM”, the target mRNA inhibition stood at 66%.

Consider “CTCATACTTGCTTTAAT (sugars l4 d11 l2, PS)”, for which the target mRNA inhibition turned out to be 7% (Human Neuronal Cell, 0.2 µM); 13% (Human Neuronal Cell, 1 µM); 26% (Human Neuronal Cell, 5 µM); 96.4% under setting [1].

For the sequence “CTCATCCCTCCAAGAAA (sugars l2 d13 l2, PS)”, the target mRNA inhibition reads like this: (Human Neuronal Cell, 0.2 µM) 5%; (Human Neuronal Cell, 1 µM) -16%; (Human Neuronal Cell, 5 µM) -5%; under setting [1], 88.8%.

On to CTCCAACATAGATCCT (sugars l3 d10 l3, PS), for which the target mRNA inhibition is, setting by setting: (Human Neuronal Cell, 0.2 µM) 44%; (Human Neuronal Cell, 1 µM) 54%.

As for CTCTCCTCAAGATCAA (sugars l3 d10 l3, PS), the target mRNA inhibition is 37% (Human Neuronal Cell, 0.2 µM) and 49% (Human Neuronal Cell, 1 µM).

Take “CTGTTTATACCCTTTCCA (sugars l1 d1 l1 d13 l2, PS)”: the target mRNA inhibition (Human Neuronal Cell, 7.5 µM) turned out to be 50%.

In the case of “CTGTTTATACCCTTTCCA (sugars l1 d2 l1 d12 l2, PS)”, where the note is “Human Neuronal Cell, 7.5 µM”, the target mRNA inhibition is 56%.

Consider “CTTCCCTTTGATAACAT (sugars l3 d11 l3, PS)”, for which the target mRNA inhibition (Human Neuronal Cell, 0.2 µM) was found to be 20% and the target mRNA inhibition (Human Neuronal Cell, 1 µM) stood at 43%.

Take “CTTTAATGCTTCTAACT (sugars l4 d11 l2, PS)”: the target mRNA inhibition worked out at 28% (Human Neuronal Cell, 0.2 µM) and 55% (Human Neuronal Cell, 1 µM).

Regarding “CTTTCCATTTATTTCCATT (sugars ldddddddddddldldlll, PS)”, for the setting “Human Neuronal Cell, 7.5 µM”, the target mRNA inhibition came to 66%.

Turning to “CTTTCCATTTATTTCCATTT (sugars ldddldldddddddddddll, PS)”, for the setting “Human Neuronal Cell, 7.5 µM”, the target mRNA inhibition was determined as 53%.

For the sequence GAATTTCAACTACTAT (sugars l2 d10 l4, PS), the target mRNA inhibition (Human Neuronal Cell, 0.2 µM) was 34% and the target mRNA inhibition (Human Neuronal Cell, 1 µM) was 45%.

For “GATCATTCTCAACAATT (sugars l1 d1 l3 d7 l5, PS)”, the target mRNA inhibition (Human Neuronal Cell, 7.5 µM) was determined as 22%.

With “GATCATTCTCAACAATT (sugars l2 d1 l2 d7 l5, PS)”, the target mRNA inhibition (Human Neuronal Cell, 7.5 µM) was 25%.

Turning to “GATCATTCTCAACAATT (sugars l5 d7 l1 d2 l2, PS)”, where the note is “Human Neuronal Cell, 7.5 µM”, the target mRNA inhibition amounted to 34%.

For “GATCATTCTCAACAATTA (sugars l2 d1 l2 d10 l3, PS)”, for the setting “Human Neuronal Cell, 7.5 µM”, the target mRNA inhibition is 57%.

As to “GATCATTCTCAACAATTA (sugars l2 d3 l1 d6 l6, PS)”, the target mRNA inhibition (Human Neuronal Cell, 7.5 µM) came to 33%.

Turning to “GATCATTCTCAACAATTA (sugars llddllddddddllddll, PS)”, where the note is “Human Neuronal Cell, 7.5 µM”, the target mRNA inhibition came to 49%.

On to “GATCATTCTCAACAATTAA (sugars lddlldddddddlddllll, PS)”, for which, under “Human Neuronal Cell, 7.5 µM”, the target mRNA inhibition was 55%.

In the case of “GATCATTCTCAACAATTAA (sugars lldddlddddddlldllll, PS)”, for the setting “Human Neuronal Cell, 7.5 µM”, the target mRNA inhibition worked out at 39%.

Turning to “GATCATTCTCAACAATTAA (sugars lllllddddddddldldll, PS)”, the target mRNA inhibition (Human Neuronal Cell, 7.5 µM) was found to be 5%.

For “GCAACATTATTAACCACCT (sugars lddddlddddddldddlll, PS)”, the target mRNA inhibition (Human Neuronal Cell, 7.5 µM) was 42%.

“GCAACATTATTAACCACCT (sugars ldlddddddddddddldll, PS)”: the target mRNA inhibition (Human Neuronal Cell, 7.5 µM) is 58%.

As to “GCAACATTATTAACCACCT (sugars lldddlddddddlddddll, PS)”, the target mRNA inhibition (Human Neuronal Cell, 7.5 µM) is 45%.

As to “GCACATTCTTTCTATAC (sugars l2 d2 l1 d9 l3, PS)”, where the note is “Human Neuronal Cell, 7.5 µM”, the target mRNA inhibition turned out to be 62%.

With “GCACATTCTTTCTATAC (sugars l2 d9 l1 d3 l2, PS)”, for the setting “Human Neuronal Cell, 7.5 µM”, the target mRNA inhibition is 48%.

As to “GCACATTCTTTCTATAC (sugars l3 d11 l3, PS)”, the target mRNA inhibition came to 39% (Human Neuronal Cell, 0.2 µM) and 59% (Human Neuronal Cell, 1 µM).

On to “GCACATTCTTTCTATAC (sugars ldlldddddddlddlll, PS)”, for which, under “Human Neuronal Cell, 7.5 µM”, the target mRNA inhibition was 51%.

Turning to “GCACATTCTTTCTATAC (sugars ldlllddddddllddll, PS)”, the target mRNA inhibition (Human Neuronal Cell, 7.5 µM) is 34%.

As to “GCACATTCTTTCTATACCT (sugars l1 d3 l1 d12 l2, PS)”, the target mRNA inhibition (Human Neuronal Cell, 7.5 µM) turned out to be 48%.

As to GCATTCAACCCTAATC (sugars l4 d10 l2, PS), the target mRNA inhibition runs as follows: (Human Neuronal Cell, 0.2 µM) 46%; (Human Neuronal Cell, 1 µM) 47%.

With GCCACAACATCTATTT (sugars l4 d10 l2, PS), the target mRNA inhibition turned out to be 37% (Human Neuronal Cell, 0.2 µM) and 38% (Human Neuronal Cell, 1 µM).

For the sequence GTACTTACACATCTAT (sugars l2 d10 l4, PS), the target mRNA inhibition (Human Neuronal Cell, 0.2 µM) is 45% and the target mRNA inhibition (Human Neuronal Cell, 1 µM) was found to be 26%.

For the sequence “GTATTTACTCTTTACCT (sugars l3 d11 l3, PS)”, the target mRNA inhibition (Human Neuronal Cell, 0.2 µM) was determined as 41% and the target mRNA inhibition (Human Neuronal Cell, 1 µM) worked out at 35%.

Take GTTCTACTATACTTTC (sugars l4 d10 l2, PS): the target mRNA inhibition was 61% (Human Neuronal Cell, 0.2 µM) and 66% (Human Neuronal Cell, 1 µM).

As to “GTTCTACTATACTTTCCT (sugars l1 d2 l1 d11 l3, PS)”, the target mRNA inhibition (Human Neuronal Cell, 7.5 µM) was found to be 62%.

Regarding “GTTCTACTATACTTTCCT (sugars l1 d4 l1 d9 l3, PS)”, under “Human Neuronal Cell, 7.5 µM”, the target mRNA inhibition came to 57%.

For the sequence “GTTCTACTATACTTTCCT (sugars lddldddddddddlddll, PS)”, where the note is “Human Neuronal Cell, 7.5 µM”, the target mRNA inhibition was found to be 58%.

For “GTTCTACTATACTTTCCT (sugars lddldlddddddddddll, PS)”, where the note is “Human Neuronal Cell, 7.5 µM”, the target mRNA inhibition came out at 56%.

Consider “GTTCTACTATACTTTCCT (sugars lddldldddddddlddll, PS)”, for which the target mRNA inhibition (Human Neuronal Cell, 7.5 µM) is 55%.

On to “GTTCTACTATACTTTCCTC (sugars lddddddddddddldldll, PS)”, for which the target mRNA inhibition (Human Neuronal Cell, 7.5 µM) turned out to be 56%.

For “GTTTATACCCTTTCCAAT (sugars ldldldddddddddldll, PS)”, the target mRNA inhibition (Human Neuronal Cell, 7.5 µM) was 57%.

For “GTTTCCATCTACTATTA (sugars l2 d11 l4, PS)”, the target mRNA inhibition is, setting by setting: (Human Neuronal Cell, 0.2 µM) 60%; (Human Neuronal Cell, 1 µM) 75%.

As for “GTTTCCATCTACTATTAA (sugars llldldddddddllddll, PS)”, the target mRNA inhibition (Human Neuronal Cell, 7.5 µM) worked out at 28%.

In the case of “GTTTCCATCTACTATTAAT (sugars lddddlddddddllddlll, PS)”, the target mRNA inhibition (Human Neuronal Cell, 7.5 µM) amounted to 59%.

Turning to “GTTTCCATCTACTATTAAT (sugars ldldllddddddddddlll, PS)”, under “Human Neuronal Cell, 7.5 µM”, the target mRNA inhibition worked out at 59%.

On to “TAAAATTATTTATACACCA (sugars l2 d3 l1 d7 l6, PS)”, for which the target mRNA inhibition (Human Neuronal Cell, 7.5 µM) amounted to 47%.

“TAAAATTATTTATACACCA (sugars l5 d8 l2 d1 l3, PS)”: the target mRNA inhibition (Human Neuronal Cell, 7.5 µM) was determined as 65%.

On to “TAAAATTATTTATACACCAT (sugars ldddlllddddddllldlll, PS)”, for which, where the note is “Human Neuronal Cell, 7.5 µM”, the target mRNA inhibition was 34%.

As to “TAAAATTATTTATACACCAT (sugars llldldldddddddlldlll, PS)”, the target mRNA inhibition (Human Neuronal Cell, 7.5 µM) was found to be 21%.

Consider “TAAAATTATTTATACACCAT (sugars lllldllddddddlllldll, PS)”, for which the target mRNA inhibition (Human Neuronal Cell, 7.5 µM) was -13%.
